This test has as its system P-388 cells. The test is described as follows: Antineoplastic action against implanted P-388 tumor, CDF1 mice, i.p.-i.p. (T/C %). The conditions noted are these: Mus musculus, read-out: T/C %, (Treatment/Control %). The format is in vivo. Here is the method: In this animal test, the antineoplastic action against the implanted tumor was examined, in lower animals in vivo, in repsect to the compounds according to the present invention, by using CDF1 mice.
To the peritoneal cavity of each group of mice consisting of six CDF1 mice per group, 10^6 /0.1 ml of P-388 cells or 10^5 /0.1 ml of L-1210 cells were implanted. […] While to the control groups of CDF1 mice, P-388 and L-1210 cells were implanted in the same manner and they were bred without administration of the compounds. […]

[1] abbreviates: ip, Table 6, P388, dose 0.05 mg/kg, i.p.
The mark [2] stands for this setting: ip, Table 6, P388, dose 0.5 mg/kg, i.p.
Setting [3] is: ip, Table 6, P388, dose 2 mg/kg, i.p.

Where two headings read alike, the source gives them in different places.

As to `CCOc1ccc2cc1Oc1ccc(cc1)CC1C(=O)N(C)C(C2)C(=O)NC(C)C(=O)NC(C)C(=O)N(C)C(Cc2ccc(OC)cc2)C(=O)NC(C)C(=O)N1C` (centres unmarked) [Ex. 3], for the setting “P388, ip”, the response vs control in vivo at 0.05 mg/kg is 137%, the response vs control in vivo at 0.5 mg/kg is 165% and the response vs control in vivo at 2 mg/kg came out at 162%.

For the compound `COc1ccc(CC2C(=O)NC(C)C(=O)N(C)C3Cc4ccc(cc4)Oc4cc(ccc4OC(C)C)CC(C(=O)NC(C)C(=O)NC(C)C(=O)N2C)N(C)C3=O)cc1` (centres unmarked) [Ex. 5], where the note is “P388, ip”, the response vs control in vivo at 0.05 mg/kg turned out to be 142%, the response vs control in vivo at 0.5 mg/kg worked out at 175% and the response vs control in vivo at 2 mg/kg was 105%.

As for `CCCCCOc1ccc2cc1Oc1ccc(cc1)CC1C(=O)N(C)C(C2)C(=O)NC(C)C(=O)NC(C)C(=O)N(C)C(Cc2ccc(OC)cc2)C(=O)NC(C)C(=O)N1C` (centres unmarked) [Ex. 7], where the note is “P388, ip”, the response vs control in vivo at 0.05 mg/kg was 122%, the response vs control in vivo at 0.5 mg/kg stood at 143% and the response vs control in vivo at 2 mg/kg worked out at 165%.

Turning to `CCCCCCCOc1ccc2cc1Oc1ccc(cc1)CC1C(=O)N(C)C(C2)C(=O)NC(C)C(=O)NC(C)C(=O)N(C)C(Cc2ccc(OC)cc2)C(=O)NC(C)C(=O)N1C` (centres unmarked) [Ex. 8], for the setting “P388, ip”, the response vs control in vivo at 0.05 mg/kg is 116%, the response vs control in vivo at 0.5 mg/kg was 145%, the response vs control in vivo at 2 mg/kg was 150% and the response vs control in vivo at 4 mg/kg was found to be 164%.

As for `CCCCCCCCOc1ccc2cc1Oc1ccc(cc1)CC1C(=O)N(C)C(C2)C(=O)NC(C)C(=O)NC(C)C(=O)N(C)C(Cc2ccc(OC)cc2)C(=O)NC(C)C(=O)N1C` (centres unmarked) [Ex. 9], where the note is “P388, ip”, the response vs control in vivo at 0.05 mg/kg worked out at 136%, the response vs control in vivo at 0.5 mg/kg stood at 147%, the response vs control in vivo at 2 mg/kg stood at 163% and the response vs control in vivo at 4 mg/kg turned out to be 152%.

As to `CCCCCCCCCOc1ccc2cc1Oc1ccc(cc1)CC1C(=O)N(C)C(C2)C(=O)NC(C)C(=O)NC(C)C(=O)N(C)C(Cc2ccc(OC)cc2)C(=O)NC(C)C(=O)N1C` (centres unmarked) [Ex. 10], the response vs control in vivo at 0.05 mg/kg under setting [1] turned out to be 112%. Moreover, the response vs control in vivo at 0.5 mg/kg under setting [2] amounted to 142%. Besides, under setting [3], the response vs control in vivo at 2 mg/kg was 150%. Moreover, the response vs control in vivo at 4 mg/kg (ip, Table 6, P388, dose 4 mg/kg, i.p.) came to 155%.

With `COc1ccc(CC2C(=O)NC(C)C(=O)N(C)C3Cc4ccc(cc4)Oc4cc(ccc4OC4CCCCC4)CC(C(=O)NC(C)C(=O)NC(C)C(=O)N2C)N(C)C3=O)cc1` (centres unmarked) [Ex. 16], for the setting “P388, ip”, the response vs control in vivo at 0.05 mg/kg worked out at 126%, the response vs control in vivo at 0.5 mg/kg was found to be 162% and the response vs control in vivo at 2 mg/kg came to 164%.

Take `CCOC(=O)CCCOc1ccc2cc1Oc1ccc(cc1)CC1C(=O)N(C)C(C2)C(=O)NC(C)C(=O)NC(C)C(=O)N(C)C(Cc2ccc(OC)cc2)C(=O)NC(C)C(=O)N1C` (centres unmarked) [Ex. 19(2), ethoxycarbonylpropylether (2) of TPC-A]: where the note is “P388, ip”, the response vs control in vivo at 0.05 mg/kg amounted to 114%, the response vs control in vivo at 0.5 mg/kg is 140%, the response vs control in vivo at 2 mg/kg stood at 142% and the response vs control in vivo at 4 mg/kg turned out to be 153%.

On to `COc1ccc(CC2C(=O)NC(C)C(=O)N(C)C3Cc4ccc(cc4)Oc4cc(ccc4OC4CCCCO4)CC(C(=O)NC(C)C(=O)NC(C)C(=O)N2C)N(C)C3=O)cc1` (centres unmarked) [Ex. 20, tetrahydropyranylether of TPC-A], for which, for the setting “P388, ip”, the response vs control in vivo at 0.05 mg/kg was found to be 138%, the response vs control in vivo at 0.5 mg/kg amounted to 164% and the response vs control in vivo at 2 mg/kg was found to be 121%.

Take `CCC(=O)Oc1ccc2cc1Oc1ccc(cc1)CC1C(=O)N(C)C(C2)C(=O)NC(C)C(=O)NC(C)C(=O)N(C)C(Cc2ccc(OC)cc2)C(=O)NC(C)C(=O)N1C` (centres unmarked) [Ex. 23]: under “P388, ip”, the response vs control in vivo at 0.05 mg/kg was determined as 129%, the response vs control in vivo at 0.5 mg/kg came to 145%, the response vs control in vivo at 2 mg/kg worked out at 164% and the response vs control in vivo at 10 mg/kg worked out at 175%.

For `CCCC(=O)Oc1ccc2cc1Oc1ccc(cc1)CC1C(=O)N(C)C(C2)C(=O)NC(C)C(=O)NC(C)C(=O)N(C)C(Cc2ccc(OC)cc2)C(=O)NC(C)C(=O)N1C` (centres unmarked) [Ex. 24], under “P388, ip”, the response vs control in vivo at 0.05 mg/kg stood at 125%, the response vs control in vivo at 0.5 mg/kg is 144%, the response vs control in vivo at 2 mg/kg turned out to be 156% and the response vs control in vivo at 10 mg/kg came out at 170%.

Regarding `COc1ccc(CC2C(=O)NC(C)C(=O)N(C)C3Cc4ccc(cc4)Oc4cc(ccc4OC(=O)C(C)C)CC(C(=O)NC(C)C(=O)NC(C)C(=O)N2C)N(C)C3=O)cc1` (centres unmarked) [Ex. 25], under “P388, ip”, the response vs control in vivo at 0.05 mg/kg stood at 124%, the response vs control in vivo at 0.5 mg/kg came out at 151%, the response vs control in vivo at 2 mg/kg turned out to be 156% and the response vs control in vivo at 10 mg/kg came out at 184%.

Take `CC=CC(=O)Oc1ccc2cc1Oc1ccc(cc1)CC1C(=O)N(C)C(C2)C(=O)NC(C)C(=O)NC(C)C(=O)N(C)C(Cc2ccc(OC)cc2)C(=O)NC(C)C(=O)N1C` (centres unmarked) [Ex. 26]: where the note is “P388, ip”, the response vs control in vivo at 0.05 mg/kg was found to be 124%, the response vs control in vivo at 0.5 mg/kg amounted to 148%, the response vs control in vivo at 2 mg/kg was found to be 162% and the response vs control in vivo at 10 mg/kg was 187%.

On to `CCCCC(=O)Oc1ccc2cc1Oc1ccc(cc1)CC1C(=O)N(C)C(C2)C(=O)NC(C)C(=O)NC(C)C(=O)N(C)C(Cc2ccc(OC)cc2)C(=O)NC(C)C(=O)N1C` (centres unmarked) [Ex. 27], for which, for the setting “P388, ip”, the response vs control in vivo at 0.05 mg/kg was 118%, the response vs control in vivo at 0.5 mg/kg came out at 150%, the response vs control in vivo at 2 mg/kg came out at 158% and the response vs control in vivo at 10 mg/kg is 172%.

For the compound `CCCCCCC(=O)Oc1ccc2cc1Oc1ccc(cc1)CC1C(=O)N(C)C(C2)C(=O)NC(C)C(=O)NC(C)C(=O)N(C)C(Cc2ccc(OC)cc2)C(=O)NC(C)C(=O)N1C` (centres unmarked) [Ex. 28], under “P388, ip”, the response vs control in vivo at 0.05 mg/kg was found to be 114%, the response vs control in vivo at 0.5 mg/kg came to 144% and the response vs control in vivo at 2 mg/kg was determined as 150%.

`CCCCCCCC(=O)Oc1ccc2cc1Oc1ccc(cc1)CC1C(=O)N(C)C(C2)C(=O)NC(C)C(=O)NC(C)C(=O)N(C)C(Cc2ccc(OC)cc2)C(=O)NC(C)C(=O)N1C` (centres unmarked) [Ex. 29]: where the note is “P388, ip”, the response vs control in vivo at 0.05 mg/kg was determined as 127%, the response vs control in vivo at 0.5 mg/kg was 147%, the response vs control in vivo at 2 mg/kg is 167% and the response vs control in vivo at 10 mg/kg came to 169%.

On to `COc1ccc(CC2C(=O)NC(C)C(=O)N(C)C3Cc4ccc(cc4)Oc4cc(ccc4OC(=O)c4ccccc4)CC(C(=O)NC(C)C(=O)NC(C)C(=O)N2C)N(C)C3=O)cc1` (centres unmarked) [Ex. 32], for which, under “P388, ip”, the response vs control in vivo at 0.05 mg/kg was determined as 128%, the response vs control in vivo at 0.5 mg/kg is 186%, the response vs control in vivo at 2 mg/kg was 176% and the response vs control in vivo at 10 mg/kg amounted to 183%.

For the compound `COc1ccc(CC2C(=O)NC(C)C(=O)N(C)C3Cc4ccc(cc4)Oc4cc(ccc4OC(=O)CCC(C)C)CC(C(=O)NC(C)C(=O)NC(C)C(=O)N2C)N(C)C3=O)cc1` (centres unmarked) [Ex. 40, 4-methyl valerate], under “P388, ip”, the response vs control in vivo at 0.05 mg/kg amounted to 112%, the response vs control in vivo at 0.5 mg/kg was 134% and the response vs control in vivo at 2 mg/kg came out at 152%.

With `COc1ccc(CC2C(=O)NC(C)C(=O)N(C)C3Cc4ccc(cc4)Oc4cc(ccc4OC(=O)Cc4ccccc4)CC(C(=O)NC(C)C(=O)NC(C)C(=O)N2C)N(C)C3=O)cc1` (centres unmarked) [Ex. 41], the response vs control in vivo at 0.05 mg/kg under setting [1] is 118%. Besides, the response vs control in vivo at 0.5 mg/kg under setting [2] was found to be 147%. Also, under setting [3], the response vs control in vivo at 2 mg/kg is 159%.

Consider `CCC(C)CC(=O)Oc1ccc2cc1Oc1ccc(cc1)CC1C(=O)N(C)C(C2)C(=O)NC(C)C(=O)NC(C)C(=O)N(C)C(Cc2ccc(OC)cc2)C(=O)NC(C)C(=O)N1C` (centres unmarked) [Ex. 42], for which, where the note is “P388, ip”, the response vs control in vivo at 0.05 mg/kg stood at 115%, the response vs control in vivo at 0.5 mg/kg stood at 140% and the response vs control in vivo at 2 mg/kg was 159%.

`CCCC(C)C(=O)Oc1ccc2cc1Oc1ccc(cc1)CC1C(=O)N(C)C(C2)C(=O)NC(C)C(=O)NC(C)C(=O)N(C)C(Cc2ccc(OC)cc2)C(=O)NC(C)C(=O)N1C` (centres unmarked) [Ex. 43]: where the note is “P388, ip”, the response vs control in vivo at 0.05 mg/kg was determined as 117%, the response vs control in vivo at 0.5 mg/kg was found to be 142% and the response vs control in vivo at 2 mg/kg is 154%.

In the case of `CCCC=CC(=O)Oc1ccc2cc1Oc1ccc(cc1)CC1C(=O)N(C)C(C2)C(=O)NC(C)C(=O)NC(C)C(=O)N(C)C(Cc2ccc(OC)cc2)C(=O)NC(C)C(=O)N1C` (centres unmarked) [Ex. 44], for the setting “P388, ip”, the response vs control in vivo at 0.05 mg/kg is 117%, the response vs control in vivo at 0.5 mg/kg turned out to be 150% and the response vs control in vivo at 2 mg/kg is 165%.

Turning to `CCC=CCC(=O)Oc1ccc2cc1Oc1ccc(cc1)CC1C(=O)N(C)C(C2)C(=O)NC(C)C(=O)NC(C)C(=O)N(C)C(Cc2ccc(OC)cc2)C(=O)NC(C)C(=O)N1C` (centres unmarked) [Ex. 45], the response vs control in vivo at 0.05 mg/kg under setting [1] turned out to be 122%. In addition, the response vs control in vivo at 0.5 mg/kg under setting [2] amounted to 145%. Further, the response vs control in vivo at 2 mg/kg under setting [3] turned out to be 162%.
